In patent publication US8067419B2, “Piperazines as antimalarial agents” (Actelion Pharmaceuticals Ltd., priority 2005, dated 2011):

Each molecule was assayed on P. falciparum K1 (assay: Plasmodium falciparum in vitro assay ([3H] hypoxanthine incorporation)). Settings: 72 h, erythrocytic stages of P. falciparum K1 (strain resistant to chloroquine and pyrimethamine), human red cells, 48 h + 24 h with [3H] hypoxanthine.
Type: cell-based
Procedure: In vitro activity against erythrocytic stages of P. falciparum is determined using a [^3H] hypoxanthine incorporation assay. One strain resistant to chloroquine and pyrimethamine (P. falciparum K1) is used in the assays, and all test compounds are compared for activity with the standard drugs chloroquine (sigma C6628) and artemisinin (sigma-36, 159-3). Compounds are diluted in DMSO to 1 mM and added to parasite cultures incubated in RPMI 1640 medium without hypoxanthine, supplemented with HEPES (5.94 g/L), NaHCO3 (2.1 g/L), neomycin (100 U/mL), Albumax (5 g/L) and washed human red cells at 2.5% haematocrit (0.3% parasitaemia). Seven serial doubling dilutions of each drug are prepared in 96-well microtitre plates and incubated in a humidifying atmosphere at 37° C.; 4% CO2, 3% O2, 93% N2.
After 48 hours, 50 μl of [^3H] hypoxanthine (0.5 μCi) is added to each well of a plate. The plates are incubated for a further 24 hours under the same conditions. The plates are then harvested with a Betaplate cell harvester (Wallac) and washed with distilled water. The dried filters are inserted into a plastic foil with 10 mL of scintillation fluid, and counted in a Betaplate liquid scintillation counter. IC50 values are calculated from sigmoidal inhibition curves using Microsoft Excel.

Row | Compound | IC50 [nM]
1 | C[C@@H]1CC[C@H]2[C@@H](C)C(=O)O[C@@H]3O[C@@]4(C)CC[C@@H]1[C@]32OO4 [Artemisinin, artemisinin, reference compound] | 2
2 | CCCCCc1ccc(CN(C(=O)/C=C/c2ccc(C(F)(F)F)cc2)[C@@H](Cc2ccccc2)C(=O)N2CCN(Cc3ccccc3)CC2)cc1 [Example 1, N—[(S)-1-benzyl-2-(4-benzyl-piperazin-1-yl)-2-oxo-ethyl]-N-(4-pentyl-benzyl)-3-(4-trifluoromethyl-phenyl)-acrylamide] | 3.8
3 | CCCCCc1ccc(CN(C(=O)/C=C/c2cccc(C(F)(F)F)c2)[C@@H](Cc2ccccc2)C(=O)N2CCN(Cc3ccccc3)CC2)cc1 [Example 2, N—[(S)-1-benzyl-2-(4-benzyl-piperazin-1-yl)-2-oxo-ethyl]-N-(4-pentyl-benzyl)-3-(3-trifluoromethyl-phenyl)-acrylamide] | 70
4 | CCCCCc1ccc(CN(C(=O)/C=C/c2ccccc2C(F)(F)F)[C@@H](Cc2ccccc2)C(=O)N2CCN(Cc3ccccc3)CC2)cc1 [Example 3, N—[(S)-1-benzyl-2-(4-benzyl-piperazin-1-yl)-2-oxo-ethyl]-N-(4-pentyl-benzyl)-3-(2-trifluoromethyl-phenyl)-acrylamide] | 375
5 | CCCCCc1ccc(CN(C(=O)/C=C/c2ccc(OC)cc2)[C@@H](Cc2ccccc2)C(=O)N2CCN(Cc3ccccc3)CC2)cc1 [Example 4, N—[(S)-1-benzyl-2-(4-benzyl-piperazin-1-yl)-2-oxo-ethyl]-3-(4-methoxy-phenyl)-N-(4-pentyl-benzyl)-acrylamide] | 7
6 | CCCCCc1ccc(CN(C(=O)/C=C/c2cccc(OC)c2)[C@@H](Cc2ccccc2)C(=O)N2CCN(Cc3ccccc3)CC2)cc1 [Example 5, N—[(S)-1-benzyl-2-(4-benzyl-piperazin-1-yl)-2-oxo-ethyl]-3-(3-methoxy-phenyl)-N-(4-pentyl-benzyl)-acrylamide] | 19
7 | CCCCCc1ccc(CN(C(=O)CCc2cc(C(F)(F)F)cc(C(F)(F)F)c2)[C@@H](Cc2ccccc2)C(=O)N2CCN(Cc3ccccc3)CC2)cc1 [Example 6, N—[(S)-1-benzyl-2-(4-benzyl-piperazin-1-yl)-2-oxo-ethyl]-3-(3,5-bis-trifluoromethyl-phenyl)-N-(4-pentyl-benzyl)-propionamide] | 588
8 | CCCCCc1ccc(CN(C(=O)/C=C/c2ccc(C(F)(F)F)cc2)[C@@H](Cc2ccccc2)C(=O)N2CCN(Cc3ccc(C(F)(F)F)nc3)CC2)cc1 [Example 15] | 11
9 | CCCCOc1ccc(CN(C(=O)/C=C/c2ccc(C(F)(F)F)cc2)[C@@H](Cc2ccccc2)C(=O)N2CCN(Cc3ccccc3)CC2)cc1 [Example 29, N—[(S)-1-benzyl-2-(4-benzyl-piperazin-1-yl)-2-oxo-ethyl]-N-(4-butoxy-benzyl)-3-(4-trifluoromethyl-phenyl)-acrylamide] | 7.5

The next lines start with the values.

Row | IC50 [nM] | Compound
10 | 6.9 | CCCCc1ccc(CN(C(=O)/C=C/c2ccc(C(F)(F)F)cc2)[C@@H](Cc2ccccc2)C(=O)N2CCN(Cc3ccccc3)CC2)cc1 [Example 33]
11 | 18 | CC(C)Cc1ccc(CN(C(=O)/C=C/c2ccc(C(F)(F)F)cc2)[C@@H](Cc2ccccc2)C(=O)N2CCN(Cc3ccccc3)CC2)cc1 [Example 37]
12 | 11 | CCCCOc1ccc(CN(C(=O)/C=C/c2ccc(OC)cc2)[C@@H](Cc2ccccc2)C(=O)N2CCN(Cc3ccccc3)CC2)cc1 [Example 38]
13 | 8.3 | COc1ccc(/C=C/C(=O)N(Cc2ccc(OCCCN(C)C)cc2)[C@@H](Cc2ccccc2)C(=O)N2CCN(Cc3ccccc3)CC2)cc1 [Example 43]
14 | 4.8 | O=C([C@H](Cc1ccccc1)N(Cc1ccc(-c2ccncc2)nc1)C(=O)/C=C/c1ccc(C(F)(F)F)cc1)N1CCN(Cc2ccccc2)CC1 [Example 125, N—[(S)-1-benzyl-2-(4-benzyl-piperazin-1-yl)-2-oxo-ethyl]-N-[2,4′]bipyridinyl-5-ylmethyl-3-(4-trifluoromethyl-phenyl)-acrylamide]
15 | 9.5 | O=C([C@H](Cc1ccccc1)N(Cc1ccc(N2CCCC2=O)nc1)C(=O)/C=C/c1ccc(C(F)(F)F)cc1)N1CCN(Cc2ccccc2)CC1 [Example 129, N—[(S)-1-benzyl-2-(4-benzyl-piperazin-1-yl)-2-oxo-ethyl]-N-[6-(2-oxo-pyrrolidin-1-yl)-pyridin-3-ylmethyl]-3-(4-trifluoromethyl-phenyl)-acrylamide]
